Measured values: patent publication US10232035B2, “Conditionally replication deficient herpes virus and use thereof in vaccines” (THE REGENTS OF THE UNIVERSITY OF COLORADO, A BODY CORPORATE, priority 2012, dated 2019)

System: SVV mutant 2
Settings: decreasing amounts of TMP, FIG. 6
Source text: Replication of mutant 2 was monitored by GFP expression (FIG. 5). […] GFP expression was monitored using an inverted microscope.

COc1cc(Cc2cnc(N)nc2N)cc(OC)c1OC [TMP, trimethoprim]
lowest amount of TMP that can be used with SVV mutant 2: 0.05 µM
